Results: patent US20220098674A1, “METHODS AND COMPOSITIONS FOR SELECTING A CANCER TREATMENT IN A SUBJECT SUFFERING FROM CANCER” (INSERM (INSTITUT NATIONAL DE LA SANTÉ ET DR LA RECHERCH …, priority 2019, published 2022)

Key:
[1] = tested on: RCC4+pVHL, RCC4 and RCC4 siVDAC1 cells; assay: Sensitivity of RCC4 cell variants to sunitinib or 3BP treatment; assay type: cell-based
Experimental: RCC4/pVHL and 786-O/pVHL cells were grown in Dulbecco's Modified Eagle's Medium (DMEM) (Gibco-BRL) supplemented with 10% fetal bovine serum with penicillin G (50 U/ml) and streptomycin sulfate (50 μg/ml). ACHN and A498 RCC cell lines were purchased from the ATCC (Mar. 3, 2013). The RCC10 cell line was a kind gift from Dr. W. H. Kaelin (Dana-Farber Cancer Institute, Boston, Mass.). An INVIVO2 200 anaerobic workstation (Ruskinn Technology Biotrace International Plc) set at 1% oxygen, 94% nitrogen and 5% carbon dioxide was used for hypoxic conditions.
Cells (5000-10000) were plated on 60 mm dishes and incubated at 37° C., 5% CO2 for colony formation. After 10 days, colonies were fixed with 10% (v/v) methanol for 15 min and stained with 5% Giemsa (Sigma) for 30 min for colony visualization.
Sunitinib, a vascular endothelial growth factor receptor inhibitor is widely used for patients with metastatic RCC. RCC4+pVHL−, RCC4− and RCC4 siVDAC1− cells were treated with 1.0 and 1.5 μM of sunitinib (Data not shown). […] As RCC4 cells with VDAC1-ΔC present a higher glycolysis than RCC4+pVHL cells, we used 3 Bromopyruvate (3BP), an halogenated analogue of pyruvic acid that enters cells like a lactate via monocarboxylic acid transporters, to block glycolysis.

ccRCC = assay: Survival (PFS, OS) of sunitinib-treated ccRCC patients by GLI1/IFT20 primary cilium signature, clinical trial SUVEGIL; assay type: in vivo, human; details: ccRCC patients treated with sunitinib, no VDAC1-ΔC
Experimental: FIG. 3. Patients with primary cilium signature present a higher immunogenicity compared to no primary cilium signature and a better response to immunotherapy. (A) Progression free-survival (PFS) and (B) Overall survival (OS) for the primary cilium signature was calculated from patients of the TCGA cohort C treated with sunitinib using the GLI1/IFT20 signature. Statistical significance (p-value) is indicated. The median survival is also indicated.
The Student's t-test was used to compare continuous variables and chi-square test, or Fisher's exact test (when the conditions for use of the χ2-test were not fulfilled), were used for categorical variables. To guarantee the independence of primary cilium as a prognostic factor, the multivariate analysis was performed using Cox regression adjusted to the stage and age. DFS was defined as the time from surgery to the appearance of metastasis. OS was defined as the time between surgery and the date of death from any cause, censoring those alive at last follow-up. The Kaplan-Meier method was used to produce survival curves and analyses of censored data were performed using Cox models. All analyses were performed using R software, version 3.2.2 (Vienna, Austria, https://www.r-project.org/).
We thus checked if PC+ patients with a GLI1+/IFT20+ signature and no VDAC1-ΔC are resistant or sensitive to sunitinib.

RCC4 siVDAC1 cells = assay: Invasion assay (aggressiveness) of RCC4 siVDAC1 cells treated with 3BP; assay type: cell-based
Experimental: The invasion assay was performed using cell culture inserts with 8.0 μm pore transparent PET membrane coated with 10 μg/mL fibronectin. Inserts were coated with 2 μg/μL of Matrigel and incubated for 3 h at 37° C. in a CO2 incubator. Briefly, overnight serum-starved cells (8×10^4 cells) were seeded into the top chamber in medium without FBS, while medium with 10% FBS was present in the bottom chamber. The cells were incubated for 24 h. Media and remaining cells were removed from the top chamber with a cotton swab and washed twice with PBS. The bottom chamber was aspirated and washed twice with PBS. Inserts were fixed with 4% PFA. Invasiveness was assayed in triplicate for each condition, in at least three independent experiments. Cells that invaded the Matrigel and migrated through the filter and adhered to the lower surface were stained for 10 min with 0.5% crystal violet in 25% methanol. Inserts were rinsed in distilled water until no additional stain leached and were air-dried overnight. Crystal violet was extracted from the invading cells by adding 600 μl of 0.1M sodium citrate in 10% acetic acid. Absorbance was measured spectrophotometrically at 585 nm using Spectronic GENESYS 5 (Milton Roy, Rochester, N.Y.). Microarray experiments Microarray experiments were already described (22). […]

RCC4 cells = assay: Cell death in RCC4 cells, siRNA to VDAC1 or AEP combined with 3BP; assay type: cell-based; details: 3BP combined with siRNA to VDAC1 or AEP
From the text: In patients who progressively lose the primary cilium, this loss generated increased metabolism and greater resistance to cell death, promoting tumor growth. Since this loss was related to the presence of the cleaved form of VDAC1, the strategy would therefore be to prevent the cleavage of VDAC1 to restore the presence of the primary cilium. […] Indeed, we characterized a signature related to EMT that can explain the aggressive phenotype of the tumors of these patients. However, remodeling of metabolism was changed. Although cancer metabolism is a hallmark of cancer, it has been shown that aberrant metabolism supports EMT (47,48). […] It is therefore possible to envisage specific treatment for these groups: Temsirolimus (50) or Everolimus, specific inhibitors of mTOR (51) that block proliferation, in combination with small molecule inhibitors that prevent EMT such as EW-7197 or IN-1130, through a block in TGFβ1 and 2, have already been used in metastatic breast and lung cancer (52). By maintaining only one metabolic pathway, cancer cells with a GLI1+/IFT20+ signature offer a metabolic vulnerability that it would be wise to exploit. […] Finally, combination of an immune checkpoint inhibitor such as atezolizumab or nivolumab (an anti-PDL1 or PD1 inhibitor) alone or plus 3-bromopyruvate could be evaluated on PC+ patients with such reduced overall survival (FIG. 1). […]

CCN(CC)CCNC(=O)c1c(C)[nH]c(/C=C2\C(=O)Nc3ccc(F)cc32)c1C [sunitinib, N-[2-(diethylamino)ethyl]-5-{[(3Z)-5-fluoro-2-oxo-2,3-dihydro-1H-indol-3-ylidene]methyl}-2,4-dimethyl-1H-pyrrole-3-carboxamide]
sensitivity to sunitinib ([1]; RCC4+pVHL, RCC4 and RCC4 siVDAC1 cells (all these cells), 1.0 and 1.5 μM): sensitive | sensitivity to sunitinib ([1]; RCC4 cells expressing no VDAC1-ΔC): less sensitive | sensitivity to sunitinib, relative ([1]; cells with VDAC1-ΔC versus RCC4+pVHL cells or cells with no VDAC1-ΔC or less VDAC1, 1.0 and 1.5 μM): slightly more sensitive | survival (PFS and OS) of PC+ patients versus PC− groups (ccRCC): lower survival

O=C(O)C(=O)CBr [3BP, 3-bromopyruvate]
sensitivity to 3BP ([1]; cells presenting no VDAC1-ΔC or less VDAC1, 10 and 25 μM): highly sensitive | aggressiveness (invasion) compared to control (RCC4 siVDAC1 cells): strongly decreased | cell death (RCC4 cells): increased cell death
